# From patent US12349665B2, “Animal model for hepatocellular carcinoma and uses thereof” (TAIPEI VETERANS GENERAL HOSPITAL, priority 2019, dated 2025)
# Experiments:
# Assay type in all cases: in vivo, mouse
# HBV = assay: Long-term use and withdrawal of HBV antiviral drugs in hybrid mice (HBV transgenic x miR-122 knock-out), viral load; settings: six-month-old hybrid mice, ETV 5 or 1 mg/kg; for amount of virus after one month of medication (M1) / amount of virus after one month of withdrawal (M2): TDF 135 or 50 mg/kg
# Experimental: Six-month-old hybrid mice were fed with different doses of TDF (135 or 50 mg/kg-day) and […] (5 or 1 mg/kg-day).
# (Wu & Wu et al. Gastroenterology 2014). At present, nucleoside analogues that are more commonly used clinically are tenofovir (TDF) and entecavir (ETV), which have strong antiviral efficacy and rarely have drug resistance. Reactivation of the virus and recurrence of hepatitis occurred more frequently and early after withdrawal of tenofovir (TDF) than after withdrawal of entecavir (ETV). Withdrawal of tenofovir (TDF) may sometimes cause liver failure for some unknown reason. The effect of long-term use and withdrawal of HBV antiviral drug tenofovir (TDF) and entecavir (ETV) on the amount of virus was compared. Six-month-old hybrid mice were fed with different doses of TDF (135 or 50 mg/kg) and ETV (5 or 1 mg/kg). […] Studies of efficacy and side effects of long-term use of tenofovir (TDF) or entecavir (ETV) on reducing hepatitis by using the hybrid mice are going on, and valuable clinical data will be provided.
# [1] = test system: drug resistant HBV genome; assay: Antiviral drug treatment of HBV transgenic mice with drug resistant HBV genome, amount of virus in serum; settings: compared with wild-type HBV genome mice
# Source text: (§1) According to the present invention, the drug resistant HBV genome is resistant to an antiviral nucleoside analogue, such as adefovir or lamivudine.
# (§2) The upper and lower limits of the rectangles in the figure are quartiles, and the horizontal lines within the rectangles indicate the median. Mann-Whitney U test was used for statistical analysis, and p=0.0093, showing the significant differences.
# [2] = test system: wild-type hepatitis B virus; assay: Antiviral drug treatment of HBV transgenic mice with wild-type HBV genome, amount of virus in serum
# Source text: as §1, §2
smiles,measurement,setting,value
"C=C1[C@H](CO)[C@@H](O)C[C@@H]1n1cnc2c(=O)[nH]c(N)nc21 [ETV, entecavir]",amount of virus after 3 months of withdrawal (M4),HBV,1.0E+5 to 1.0E+6
same,amount of virus after 6 months of withdrawal (M7),HBV,rose to the level before the medication (M0)
same,amount of virus after one month of medication (M1),HBV,reduce the amount of virus to a minimum
same,amount of virus after one month of withdrawal (M2),HBV,maintained at the lower level
"CC(C)OC(=O)OCOP(=O)(CO[C@H](C)Cn1cnc2c(N)ncnc21)OCOC(=O)OC(C)C.O=C(O)/C=C/C(=O)O [TDF, tenofovir]",amount of virus after one month of medication (M1),HBV,reduce the amount of virus to a minimum
same,amount of virus after one month of withdrawal (M2),HBV,quickly rose to the level before medication (M0)
Nc1ncnc2c1ncn2CCOCP(=O)(O)O [adefovir],amount of serum virus after treatment with antiviral drug,[1],decreased much less
same,amount of serum virus after treatment with antiviral drug,[2],decreased by more than a thousand times
